Laboratory results reported in paper PMC7816587 (Food and Chemical Toxicology, 2021).

Experiment: Pharmacokinetic interactions between QPD and lopinavir in rats
Format: in vivo
Settings: male, Sprague-Dawley, rat, plasma, po, 160 mg/kg

Cc1cccc(C)c1OCC(=O)N[C@@H](Cc1ccccc1)[C@@H](O)C[C@H](Cc1ccccc1)NC(=O)[C@H](C(C)C)N1CCCNC1=O [lopinavir]
Tmax: 8 h | AUC(0-inf) (AUC(0-inf) of lopinavir, rats, water + lopinavir 160 mg/kg i.g. (control group)): 6090 ng·h/mL | half-life (t1/2 of lopinavir, rats, water + lopinavir 160 mg/kg i.g. (control group)): 1.9 h
